Measurements published in patent US8097761B2, “Process for production of carotenoid” (JX Nippon Oil & Energy Corporation, priority 2006, dated 2012).

Test: Measurement of the concentration of astaxanthin dissolved at room temperature
Type: physicochemical

Concentration dissolved (solvent 1,4-dioxane (Ethers), room temperature): 0.3 % (wt./wt.)
Concentration dissolved (solvent Acetone (Ketones), room temperature): 0.02 % (wt./wt.)
Concentration dissolved (solvent Benzene (Hydrocarbons), room temperature): 0.05 % (wt./wt.)
Concentration dissolved (solvent Chloroform (Halogens), room temperature): 0.7 % (wt./wt.)
Concentration dissolved (solvent Cyclohexane (Hydrocarbons), room temperature): 0.001 % (wt./wt.)
Concentration dissolved (solvent Cyclohexanone (Ketones), room temperature): 0.2 % (wt./wt.)
Concentration dissolved (solvent Dichloromethane (Halogens), room temperature): 2.3 % (wt./wt.)
Concentration dissolved (solvent Ethanol (Alcohols), room temperature): 0.002 % (wt./wt.)
Concentration dissolved (solvent Hexane (Hydrocarbons), room temperature): 0.003 % (wt./wt.)
Concentration dissolved (solvent Isopropanol (Alcohols), room temperature): 0.002 % (wt./wt.)
Concentration dissolved (solvent Methanol (Alcohols), room temperature): 0.003 % (wt./wt.)
Concentration dissolved (solvent Methylethylketone (Ketones), room temperature): 0.03 % (wt./wt.)
Concentration dissolved (solvent Methylisobutylketone (Ketones), room temperature): 0.02 % (wt./wt.)
Concentration dissolved (solvent Tetrahydrofuran (Ethers), room temperature): 0.7 % (wt./wt.)
Concentration dissolved (solvent Toluene (Hydrocarbons), room temperature): 0.03 % (wt./wt.)
Concentration dissolved (solvents other than halogen solvents, room temperature (summary of Table 1)): ≤ 1%
Compound: CC1=C(/C=C/C(C)=C/C=C/C(C)=C/C=C/C=C(C)/C=C/C=C(C)/C=C/C2=C(C)C(=O)[C@@H](O)CC2(C)C)C(C)(C)C[C@H](O)C1=O [astaxanthin]
